Assay: Controlled release of crystal violet from nanowire scaffolds on Ti foil
Assay type: physicochemical
Details: for Release (%): crystal violet released from nanowire scaffolds on Ti, 10 mL fresh water
Protocol: A piece of dried titanium foil (2.2 cm^2) that was coated with nanofiber scaffolds was soaked in 100 mL of 0.001 mol/L crystal violet (C25H30ClN3, as a simulated drug) solution for 12 hours at room temperature. Then, the foil was collected, rinsed with deionized water, dried at room temperature overnight, and placed in 10 mL of fresh water for releasing the crystal violet molecules. The released crystal violet was measured on the Beckman DU-530 UV-Visible Spectrometer. A piece of dried titanium foil (2.2 cm^2) pre-coated with the nanowire scaffolds was soaked in 100 mL of 0.001 mol/L crystal violet (C25H30ClN3, as a simulated drug) solution for 12 hrs at room temperature. Then, the foil was collected, rinsed with deionized water, dried at room temperature overnight, and was then placed in 10 mL of fresh water for releasing the crystal violet molecules. The released crystal violet was measured on the Beckman DU-530 UV-Visible Spectrometer.

Release (%) (time 0 hours): 22.6%
Release (%) (time 2 hours): 82.0%
Release (%) (time 2 hours, listed as model drug): ~80%
Release (%) (time 4 hours): 95.0%
Release (%) (time 6 hours): 99.2%
Release (%) (time 12 hours): 100%
time at which the model drug's concentration reached a maximum (release from nanowire scaffold on Ti foil): 6 h
SMILES: CN(C)c1ccc(C(=C2C=CC(=[N+](C)C)C=C2)c2ccc(N(C)C)cc2)cc1 [Crystal violet, crystal violet]

Source: patent publication US8318297B2, “Titanate nanowire, titanate nanowire scaffold, and processes of making same” (Board of Trustees of the University of Arkansas, priority 2007, dated 2012)
